From patent US20220401414A1, “TREATMENT AND PREVENTION OF A NEURODEGENERATIVE DISORDER” (Inflazome Limited, priority 2019, published 2022)

Columns and labels:
[1] = system: 6-OHDA mouse model of Parkinson's disease; assay: Studies C and D: LC-MS/MS quantification of striatal dopamine and metabolites in the 6-OHDA mouse model; type: in vivo, C57BL6 mice; conditions: 28 days after the 6-OHDA lesion
Protocol: To determine the oral efficacy of the compound of formula (I) in the 6-OHDA mouse model of Parkinson's disease.
8-week-old C57BL6 male mice (obtained from ARC, Perth, Australia) were housed under a 12-h light cycle in a SPF climate-controlled facility with food and water provided ad libitum for two weeks prior to study initiation. For treatment with the compound of formula (I), mice were dosed via oral gavage. Ten (10) mice in each group were dosed at 3 or 1 mg/kg, starting the day before (24 hr prior) stereotaxic surgery, and then QD until sacrifice.
6-OHDA (Sigma) was prepared immediately prior to surgeries. A sterile saline (0.9%) solution containing ascorbic acid (0.2%) was used as the vehicle to dissolve 6-OHDA. […]
Mice were sacrificed 1 week after the amphetamine test (day 28) and striatal tissue was micro-dissected, weighed and snap-frozen at −80° C. […] Striatal dopamine (DA) and its metabolites (DOPAC and HVA) were quantified in their stable derivative 3o form in the presence of internal standard 3,4-dihydroxybenzylamine (DHBA) using highly sensitive liquid chromatography-tandem mass spectrometry (LC-MS/MS) as described previously (Park et al., Biol. Pharm. Bull., 2013, vol. 36, pp. 252-8). […] For quantitation, one transition per analyte was monitored and two transitions per analyte were monitored for qualitative purposes. […]

[2] = system: PFF-Synuclein model of Parkinson's disease; assay: Study H: rotarod test in the PFF-Synuclein mouse model; type: in vivo, C57BL6 mice; conditions: 4, 6, 8 and 10 months
Source text: To determine the oral efficacy of the compound of formula (I) in a chronic progressive model of Parkinson's disease (PD), the preformed fibrils (PFF) mouse model, using a prophylactic and therapeutic dosing schedule.
8-week-old C57BL6 male mice (obtained from ARC, Perth, Australia) were housed under a 12-h light cycle in a SPF climate-controlled facility with food and water provided ad libitum for two weeks prior to study initiation. The compound of formula (I) (or water alone for control animals) was administrated to mice in drinking water at 0.3 mg/ml. Animals were separated into the groups described in Table 9, with ten animals initiated in each cohort. […]
Recombinant human a-synuclein was obtained from rPeptide Inc., and in vitro fibril generation was performed with a final concentration of 2 mg/ml in phosphate-buffered saline (PBS) by incubation at 37° C. with agitation in an orbital mixer (400 rpm) for 7 days with daily cycles of sonication used to break down fibrillar aggregates as outlined in previously published reports (see Luk et al., Science, 2012, vol. 338(6109), pp. 949-53; and Zhang et al., Methods Mol. Biol., 2019, vol. 1948, pp. 45-57, which are incorporated in their entirety herein by reference). The generation of fibrillar α-synuclein species was confirmed by transmission electron microscopy and Thioflavin T fluorescence prior to use. […]

SMILES: CC(C)n1ccc(S(=O)(=O)NC(=O)Nc2c3c(cc4c2CCC4)CCC3)n1 [compound of formula (I)]
- striatal dopamine (with metabolites DOPAC and HVA) ([1]; Study C, 3 mg/kg oral QD): significantly protected against the loss of dopamine
- striatal dopamine ([1]; Study D, 3 mg/kg oral daily): significantly protected against the loss of dopamine with improved efficacy compared to MCC950
- performance on the rotarod ([2]; prophylactic: 0.3 mg/ml in drinking water from 24 h before PFF injection): improved performance on the rotarod
- performance on the rotarod ([2]; therapeutic: 0.3 mg/ml in drinking water from 4 months after PFF injection): improved performance on the rotarod
